Results reported in article PMC7253382, “Trypanocidal and leishmanicidal activity of six limonoids” (Journal of Natural Medicines, 2020).
In brackets after ≈: the same amount, converted by molar mass. Read-outs that look alike come from different tables or passages of the source.

What was measured:
[1] = system: promastigotes of Leishmania major (strain MHOM/IL/81/Friedlin); experiment: In vitro toxicity assay (resazurin), L. major promastigotes; assay type: cell-based; conditions: 72 h; for GI50: read-out: L. major GI50; for MIC: read-out: L. major MIC
Experimental: (§1) Bloodstream forms of Trypanosoma brucei (clone 427-221a) and human myeloid leukaemia HL-60 cells were maintained in Baltz medium supplemented with 16.7% heat-inactivated bovine serum in a humidified atmosphere containing 5% CO2 at 37 °C. Promastigotes of Leishmania major (strain MHOM/IL/81/Friedlin [16]) were cultured in Schneider’s insect medium supplemented with 10% heat-inactivated foetal bovine serum in a humidified atmosphere containing 5% CO2 at 27 °C.
(§2) Toxicity assays were carried out as previously described with some modifications. In brief, cells were seeded in 96-well plates in a final volume of 200 μL of appropriate medium containing various concentrations of test compounds (tenfold dilution from 100 µM to 1 nM) and 1% DMSO. Wells just containing medium and 1% DMSO served as controls. The initial cell densities were 1 × 10^4/mL for T. brucei bloodstream forms, 2.5 × 10^5/mL for L. major promastigotes, and 5 × 10^4/mL for HL-60 cells. After 24 h incubation, 20 µL of a 0.5 mM resazurin solution prepared in PBS was added and the cells were incubated for a further 48 h. Thereafter, the absorbance of wells was read on a BioTek ELx808 microplate reader using a test wavelength of 570 nm and a reference wavelength of 630 nm. The 50% growth inhibition (GI50) value, i.e., the concentration of a compound necessary to reduce the growth rate of cells by 50% compared to the control, was determined by linear interpolation. The minimum inhibitory concentration (MIC) values, i.e. the concentration of a compound at which all trypanosomes and human cells were killed, was determined microscopically.

[2] = system: human myeloid leukaemia HL-60 cells; experiment: In vitro toxicity assay (resazurin), HL-60 cells; assay type: cell-based; conditions: 72 h; for GI50: 50% growth inhibition, resazurin
Experimental: as §1, §2

[3] = In vitro toxicity assay (resazurin), HL-60 cells; assay type: cell-based, human; conditions: human
Experimental: as §1, §2

[4] = system: intracellular L. major amastigotes in J774 macrophages; experiment: Intra-macrophages amastigote assay; assay type: cell-based, Leishmania major; conditions: for Killing of intracellular amastigotes: 72 h
Experimental: The intra-macrophages amastigote assay was performed as previously described with some modification. In brief, 1 mL of J774 cells (7 × 10^4) suspended in RPMI supplemented with 10% foetal bovine serum were pipetted into wells of a 24 well plate containing sterile glass coverslips. Subsequently, cells were incubated overnight at 37 °C and 5% CO2 in a humidified incubator. The next day, metacyclic L. major promastigotes (MOI 20:1) were added and the plates incubated for 24 h at 34 °C and 5% CO2 in a humidified incubator. After 24 h incubation, cells were washed 4 times with PBS to remove parasites that had not invaded any macrophage. Then, cells were incubated with compound 1 at the following concentrations: 10, 2.5, 1.25, 0.625 and 0.1 µM. Amphotericin B (0.1 µM) was used as a positive control and no drug treatment as a negative control. After 72 h of drug incubation, cells were gently washed 4 times with PBS and fixed with 4% paraformaldehyde for 30 min. Thereafter, cells were washed once with water and stained with Giemsa for 40 min. Cells on coverslips were then destained using the acetone-xylene protocol as follows: first, pure acetone; second, pure acetone; third, acetone/xylene 9:1; forth, acetone/xylene 7:3; fifth, acetone/xylene 3:7; sixth, pure xylene. Finally, coverslips were mounted on slides with Entellan new mounting medium. Infection index (parasites/cell) were determined by counting approximately 300 cells per coverslips using an Olympus BX50 microscope with a 100 × N.A. 1.35 oil immersion objective.
Fig. 2 Effect of compound 1 on intracellular L. major amastigotes. After infection of J774 macrophages with metacyclic promastigotes of L. major, cells were treated with compound 1 or amphotericin B (AM) or with DMSO alone (DMSO) 24 h post infection. After 72 h incubation, coverslips with cells were washed with PBS, fixed with paraformaldehyde and stained with Giemsa. Subsequently, cells were destained and coverslips mounted, and the infection index determined. Mean values ± SD of three independent experiments run in triplicate are shown

[5] = system: bloodstream forms of Trypanosoma brucei (clone 427-221a); experiment: In vitro toxicity assay (resazurin), T. brucei bloodstream forms; assay type: cell-based; conditions: for GI50: read-out: T. brucei GI50; for MIC: read-out: T. brucei MIC
Experimental: as §1, §2

[6] = system: immortalised human embryonic kidney cell line HEK239T; parameters: method as in PMID 28917086; conditions: cited from earlier work
[7] = system: Axenic grown amastigotes of L. donovani; parameters: method as in PMID 17253841; conditions: cited from earlier work
[8] = system: bloodstream forms of T. brucei rhodesiense; parameters: method as in PMID 17253841; conditions: cited from earlier work
[9] = Leishmania major, promastigotes, 50% growth inhibition, resazurin
[10] = Leishmania major, promastigotes, determined microscopically
[11] = Trypanosoma brucei, 72 h, bloodstream forms, 50% growth inhibition, resazurin, 72 h
[12] = Trypanosoma brucei, bloodstream forms, concentration at which all cells were killed, determined microscopically, 72 h
[13] = cytotoxicity, determined microscopically
[14] = HL-60 cells (human myeloid leukaemia), cytotoxicity, 50% growth inhibition, resazurin, 72 h, read-out: HL-60 cells GI50
[15] = cytotoxicity, 50% growth inhibition, resazurin, 72 h, read-out: HL-60 cells GI50

Row | SMILES | GI50 [1, 9] | MIC [1, 10] | GI50 [5, 11] | MIC [5, 12] | HL-60 cells MIC [2, 13] | GI50 at 72 h [3, 14] | GI50 ([5]; Trypanosoma brucei, 72 h) | MIC ([5]; Trypanosoma brucei, 72 h) | GI50 ([1]; Leishmania major) | MIC ([1]; Leishmania major) | GI50 at 72 h [3, 15] | further results
1 | C[C@@H]1[C@H](O)[C@@H](C)/C=C/C=C/C=C/C=C/C=C/C=C/C=C/[C@H](O[C@@H]2O[C@H](C)[C@@H](O)[C@H](N)[C@@H]2O)C[C@@H]2O[C@](O)(C[C@@H](O)C[C@@H](O)[C@H](O)CC[C@@H](O)C[C@@H](O)CC(=O)O[C@H]1C)C[C@H](O)[C@H]2C(=O)O [Amphotericin B, reference compound] | 0.036 ± 0.001 µM | 0.1 µM (≈ 0.0924 µg/mL) | – | – | – | – | – | – | – | – | – | HL-60 cells MIC ([2]; human): > 100 µM; GI50 at 72 h ([3]; HL-60 cells GI50): 50.7 ± 9.3 µM; Killing of intracellular amastigotes ([4]; at 0.1 μM, positive control): completely destroy
2 | CC1(C)C(=O)C=C[C@]2(C)C3C(=O)C[C@@]4(C)[C@H](c5ccoc5)OC(=O)[C@H]5O[C@]54[C@]3(C)CC[C@@H]12 (stereo partly shown) [Compound 1, kotschyienone A] | 2 to 3 µM | 10 µM (≈ 4.39 µg/mL) | 2 to 3 µM | 10 µM (≈ 4.39 µg/mL) | 100 µM | 31.5 to 46.2 µM | – | – | – | – | – | GI50 ([5]; Trypanosoma brucei, bloodstream forms, same value as 2.48 μM in mass units): 1.09 µg/mL; GI50 ([5]; bloodstream forms, 50% growth inhibition, resazurin, 72 h): 2.48 ± 0.12 µM; GI50 ([1]; promastigotes, 50% growth inhibition, resazurin): 2.86 ± 0.89 µM; GI50 ([2]; cytotoxicity): 31.5 ± 3.7 µM; cytotoxicity for HEK239T [6]: > 200 µg/mL; GI50 ([4]; Leishmania major, J774, same value as 1.51 μM in mass units): 0.66 µg/mL (≈ 1.51 µM); Killing of intracellular amastigotes ([4]; at 10 μM): killed completely; ED50 (50% effective dose), reduction of parasite burden of infected macrophages ([4]; intracellular amastigotes in J774 macrophages, 72 h drug incubation, infection index): 1.51 µM
3 | CC1(C)C(=O)C=C[C@]2(C)C3C(=O)C[C@@]4(C)[C@H](c5ccoc5)OC(=O)[C@H]5O[C@]54[C@]3(C)[C@H](O)C[C@@H]12 (stereo partly shown) [Compound 2, kotschyienone B] | 14.9 ± 5.9 µM | 100 µM (≈ 45.5 µg/mL) | 14.2 ± 2.9 µM | 100 µM (≈ 45.5 µg/mL) | > 100 µM | > 100 µM | – | – | – | – | – | –
4 | CC1(C)C(=O)C=C[C@]2(C)C3CC[C@@]4(C)[C@H](c5ccoc5)OC(=O)[C@H]5O[C@]54[C@]3(C)[C@H](O)C[C@@H]12 (stereo partly shown) [Compound 3, 7-deacetylgedunin] | – | – | – | – | 100 µM | – | 14.5 ± 3.2 µM | 100 µM (≈ 44.1 µg/mL) | 11.6 ± 1.6 µM | 100 µM (≈ 44.1 µg/mL) | 31.5 to 46.2 µM | GI50 [7]: ~1 µM; GI50 ([2]; cytotoxicity): 46.2 ± 6.7 µM; GI50 [8]: 3.4 µM
5 | CC1(C)C(=O)C=C[C@]2(C)C3CC[C@@]4(C)[C@H](c5ccoc5)OC(=O)[C@H]5O[C@]54[C@]3(C)C(=O)C[C@@H]12 (stereo partly shown) [Compound 4, 7-deacetyl-7-oxogedunin] | – | – | – | – | > 100 µM | – | 3.18 ± 0.48 µM | > 100 µM | 7.63 ± 2.78 µM | > 100 µM | > 100 µM | GI50 [7]: ~1 µM; GI50 [8]: 3.4 µM
6 | C=C1[C@@H]([C@@]2(C)C=CC(=O)C(C)(C)[C@@H]2CC(=O)OC)CC[C@@]2(C)[C@H](c3ccoc3)OC(=O)[C@H]3O[C@]132 [Compound 5, andirobin] | > 100 µM | > 100 µM | 11.5 ± 6.3 µM | > 100 µM | > 100 µM | > 100 µM | – | – | – | – | – | –
7 | C=C1[C@@H]2CC[C@@]3(C)[C@H](c4ccoc4)OC(=O)C[C@]13O[C@H]1CC(=O)C(C)(C)[C@H](CC(=O)OC)[C@]12C [Compound 6, methyl angolensate] | – | – | – | – | > 100 µM | – | 6.04 ± 2.25 µM | > 100 µM | > 100 µM | > 100 µM | > 100 µM | –
8 | Cc1ccc(C(=O)Nc2ccc(S(=O)(=O)O)c3cc(S(=O)(=O)O)cc(S(=O)(=O)O)c23)cc1NC(=O)c1cccc(NC(=O)Nc2cccc(C(=O)Nc3cc(C(=O)Nc4ccc(S(=O)(=O)O)c5cc(S(=O)(=O)O)cc(S(=O)(=O)O)c45)ccc3C)c2)c1 [Suramin, reference compound] | – | – | 0.042 ± 0.004 µM | 1 µM (≈ 1.3 µg/mL) | – | – | – | – | – | – | – | HL-60 cells MIC ([2]; human): > 100 µM; GI50 at 72 h ([3]; HL-60 cells GI50): > 100 µM
